Results as given in US8592426B2, “Aryl-benzocycloalkyl amide derivatives” (Hoffmann—La Roche Inc., priority 2011, dated 2013).

Legend:
Bradykinin-1 receptor [1] = molecular target: T1, Bradykinin-1 receptor (Homo sapiens (Human), UniProt P46663); experiment: Receptor binding assay (B1R Binding Assay), [3H]-Kallidin (Des Arg10, Leu9) displacement; details: membranes from CHO-K1 cells overexpressing Bradykinin-1 receptor; 6 nM radioligand
Procedure: Binding assays were done with membranes from CHO-K1 cells overexpressing Bradykinin-1 receptor.
To determine non-specific binding 10 μM Lys-(Des-Arg^9)-Bradykinin (Bachem) was added. Membranes were harvested through GF/B (glass fiber filter; PerkinElmer) plates, equilibrated with 0.5% polyethylenimine, air dried at 50° C. for 2 h. Radioactivity was determined by counting in a topcounter (NXT Packard).

Bradykinin-1 receptor [2] = molecular target: T1, Bradykinin-1 receptor; experiment: Calcium mobilization assay (FLIPR, Fluo-4) in GeneBLAzer Bradykinin (B1)-NFAT-bla CHO-K1 cells; format: cell-based; details: antagonist activity; CHO-K1 cells stably overexpressing the human bradykinin 1 receptor; read-out: Ca mobilization Assay IC50
Procedure: Calcium Mobilization Assay
GeneBLAzer® Bradykinin (B1)-NFAT-bla CHO-K1 cells (from Invitrogen) stably overexpressing the human bradykinin 1 receptor were cultured in DMEM (high glucose) supplemented with 10% dialysed FBS, 1% NEAA (non essential amino acids) 1% penicillin/streptomycin, 1% G418 and 0.1 mg/ml zeocin.
For the assay cells were grown overnight in 384-well black clear flat bottom polystyrene plates (Costar) at 37° C. at 5% CO2. After washing with DMEM, 20 mM Hepes, 2.5 mM probenecid, 0.1% BSA (DMEM assay buffer) cells were loaded with 4 μM Fluo-4 in the same DMEM assay buffer for 2 hours at 30° C. Excess dye was removed and cells were washed with DMEM assay buffer. 384-well compound plates were prepared with DMEM assay buffer/0.5% DMSO with or without various concentrations of test compounds. Usually compounds were tested for agonist and antagonist activity.
Test compounds were added to the assay plate and agonist activity was monitored as fluorescence for 80 seconds with a FLIPR (488 nm excitation; 510-570 nm emission; Molecular Devices). After 20-30 min. of incubation at 30° C., 20 nM […] (R&D; Roche) was added and fluorescence was monitored again for 80 seconds. Increases in intracellular calcium are reported as maximum fluorescence after agonist exposure minus basal fluorescence before exposure.

T1 sequence (P46663 whole entry): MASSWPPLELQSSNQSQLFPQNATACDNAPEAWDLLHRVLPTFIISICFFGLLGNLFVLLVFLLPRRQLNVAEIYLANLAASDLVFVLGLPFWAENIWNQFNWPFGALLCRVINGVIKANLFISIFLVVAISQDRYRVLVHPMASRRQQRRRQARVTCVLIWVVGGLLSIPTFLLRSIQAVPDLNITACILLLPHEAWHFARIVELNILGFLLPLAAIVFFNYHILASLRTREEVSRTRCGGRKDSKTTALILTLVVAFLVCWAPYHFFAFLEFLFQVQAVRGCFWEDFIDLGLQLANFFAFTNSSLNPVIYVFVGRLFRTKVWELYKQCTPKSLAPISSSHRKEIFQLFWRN

| Structure (SMILES) | Ki (Bradykinin-1 receptor [1]) [nM] | IC50 (Bradykinin-1 receptor [2]) [nM] |
| --- | --- | --- |
| COC(=O)c1ccccc1-c1ccc2c(c1)CCC2NC(=O)C1(NC(=O)C(F)(F)F)CC1 (racemic) [Example 1, (rac)-2-(1-{[1-(2,2,2-Trifluoro-acetylamino)-cyclopropanecarbonyl]-amino}-indan-5-yl)-benzoic acid methyl ester] | 2170 | 2250 |
| O=C(NC1(C(=O)NC2CCc3cc(-c4cc(Cl)cc(Cl)c4OCC(F)F)ccc32)CC1)C(F)(F)F (racemic) [Example 2, 1-(2,2,2-Trifluoro-acetylamino)-cyclopropanecarboxylic acid (rac)-{5-[3,5-dichloro-2-(2,2-difluoro-ethoxy)-phenyl]-indan-1-yl}-amide] | 146 | 76.8 |
| COC(=O)c1c(Cl)cccc1-c1ccc2c(c1)CCC2NC(=O)C1(NC(=O)C(F)(F)F)CC1 (racemic) [Example 3, (rac)-2-Chloro-6-(1-{[1-(2,2,2-trifluoro-acetylamino)-cyclopropanecarbonyl]-amino}-indan-5-yl)-benzoic acid methyl ester] | 123 | 47.4 |
| O=C(NC1(C(=O)NC2CCCc3cc(-c4cc(Cl)cc(Cl)c4OCC(F)F)ccc32)CC1)C(F)(F)F (racemic) [Example 9, 1-(2,2,2-Trifluoro-acetylamino)-cyclopropanecarboxylic acid{(rac)-6-[3,5-dichloro-2-(2,2-difluoro-ethoxy)-phenyl]-1,2,3,4-tetrahydro-naphthalen-1-yl}-amide] | 236 | 82.6 |
| COC(=O)c1c(Cl)cccc1-c1ccc2c(c1)CCCC2NC(=O)C1(NC(=O)C(F)(F)F)CC1 (racemic) [Example 10, (rac)-2-Chloro-6-(5-{[1-(2,2,2-trifluoro-acetylamino)-cyclopropanecarbonyl]-amino}-5,6,7,8-tetrahydro-naphthalen-2-yl)-benzoic acid methyl ester] | 522 | 118 |
| Cc1nc(-c2c(F)cc(Cl)cc2-c2cnc3c(c2)CCC3NC(=O)C2(NC(=O)C(F)(F)F)CC2)no1 (racemic) [Example 12, 1-(2,2,2-Trifluoro-acetylamino)-cyclopropanecarboxylic acid{(rac)-3-[5-chloro-3-fluoro-2-(5-methyl-[1,2,4]oxadiazol-3-yl)-phenyl]-6,7-dihydro-5H-[1]pyrindin-7-yl}-amide] | 4.4 | 0.5 |
| Cc1nc(-c2c(F)cc(Cl)cc2-c2ccc3c(c2)OCCC3NC(=O)C2(NC(=O)C(F)(F)F)CC2)no1 (racemic) [Example 14, 1-(2,2,2-Trifluoro-acetylamino)-cyclopropanecarboxylic acid{(rac)-7-[5-chloro-3-fluoro-2-(5-methyl-[1,2,4]oxadiazol-3-yl)-phenyl]-chroman-4-yl}-amide] | 212 | 24.8 |
| Cc1nc(-c2c(F)cc(Cl)cc2-c2cc(F)c3c(c2)CCC3NC(=O)C2(NC(=O)C(F)(F)F)CC2)no1 (racemic) [Example 16, 1-(2,2,2-Trifluoro-acetylamino)-cyclopropanecarboxylic acid{(rac)-5-[5-chloro-3-fluoro-2-(5-methyl-[1,2,4]oxadiazol-3-yl)-phenyl]-7-fluoro-indan-1-yl}-amide] | 11 | 0.5 |
| Cc1nc(-c2c(F)cc(Cl)cc2-c2ccc3c(c2)OCC3NC(=O)C2(NC(=O)C(F)(F)F)CC2)no1 (racemic) [Example 19, 1-(2,2,2-Trifluoro-acetylamino)-cyclopropanecarboxylic acid{(rac)-6-[5-chloro-3-fluoro-2-(5-methyl-[1,2,4]oxadiazol-3-yl)-phenyl]-2,3-dihydro-benzofuran-3-yl}-amide] | 33.3 | 4.5 |
| Cc1nc(-c2c(F)cc(Cl)cc2-c2ccc3c(c2)SCC3NC(=O)C2(NC(=O)C(F)(F)F)CC2)no1 (racemic) [Example 21, 1-(2,2,2-Trifluoro-acetylamino)-cyclopropanecarboxylic acid{(rac)-6-[5-chloro-3-fluoro-2-(5-methyl-[1,2,4]oxadiazol-3-yl)-phenyl]-2,3-dihydro-benzo[b]thiophen-3-yl}-amide] | 9.5 | 2.3 |
| Cc1nc(-c2c(F)cc(Cl)cc2-c2cc(F)c3c(c2)CCC3NC(=O)C2(NC(=O)OC(C)(C)C)CC2)no1 (racemic) [Example 31, (1-{(rac)-5-[5-Chloro-3-fluoro-2-(5-methyl-[1,2,4]oxadiazol-3-yl)-phenyl]-7-fluoro-indan-1-ylcarbamoyl}-cyclopropyl)-carbamic acid tert-butyl ester] | 475 | 135 |
| Cc1nc(-c2c(F)cc(Cl)cc2-c2cc(F)c3c(c2)CCC3NC(=O)C2(N)CC2)no1 (racemic) [Example 32, 1-Amino-cyclopropanecarboxylic acid{(rac)-5-[5-chloro-3-fluoro-2-(5-methyl-[1,2,4]oxadiazol-3-yl)-phenyl]-7-fluoro-indan-1-yl}-amide] | 458 | 95.6 |
| COc1ncc(C(=O)NC2(C(=O)NC3CCc4cc(-c5cc(Cl)cc(F)c5-c5noc(C)n5)cc(F)c43)CC2)cn1 (racemic) [Example 33, 2-Methoxy-pyrimidine-5-carboxylic acid(1-{(rac)-5-[5-chloro-3-fluoro-2-(5-methyl-[1,2,4]oxadiazol-3-yl)-phenyl]-7-fluoro-indan-1-ylcarbamoyl}-cyclopropyl)-amide] | 18.9 | 0.5 |

More lines, now with the values ahead:

| Ki (Bradykinin-1 receptor [1]) [nM] | IC50 (Bradykinin-1 receptor [2]) [nM] | Structure (SMILES) |
| --- | --- | --- |
| 20.2 | 2 | Cc1nc(-c2c(F)cc(Cl)cc2-c2ccc3c(c2)CCC3NC(=O)C2(NC(=O)C(F)(F)F)CC2)no1 (racemic) [Example 4, 1-(2,2,2-Trifluoro-acetylamino)-cyclopropanecarboxylic acid (rac)-{5-[5-chloro-3-fluoro-2-(5-methyl-[1,2,4]oxadiazol-3-yl)-phenyl]-indan-1-yl}-amide] |
| 41.6 | 4 | Cc1nc(-c2c(F)cc(Cl)cc2-c2ccc3c(c2)CCCC3NC(=O)C2(NC(=O)C(F)(F)F)CC2)no1 (racemic) [Example 11, 1-(2,2,2-Trifluoro-acetylamino)-cyclopropanecarboxylic acid{(rac)-6-[5-chloro-3-fluoro-2-(5-methyl-[1,2,4]oxadiazol-3-yl)-phenyl]-1,2,3,4-tetrahydro-naphthalen-1-yl}-amide] |
| 9.5 | 0.5 | Cn1nnc(-c2c(F)cc(Cl)cc2-c2cnc3c(c2)CCC3NC(=O)C2(NC(=O)C(F)(F)F)CC2)n1 (racemic) [Example 13, 1-(2,2,2-Trifluoro-acetylamino)-cyclopropanecarboxylic acid{(rac)-3-[5-chloro-3-fluoro-2-(2-methyl-2H-tetrazol-5-yl)-phenyl]-6,7-dihydro-5H-[1]pyrindin-7-yl}-amide] |
| 170 | 24.6 | Cn1nnc(-c2c(F)cc(Cl)cc2-c2ccc3c(c2)OCCC3NC(=O)C2(NC(=O)C(F)(F)F)CC2)n1 (racemic) [Example 15, 1-(2,2,2-Trifluoro-acetylamino)-cyclopropanecarboxylic acid{(rac)-7-[5-chloro-3-fluoro-2-(2-methyl-2H-tetrazol-5-yl)-phenyl]-chroman-4-yl}-amide] |
| 5.9 | 0.6 | Cc1nc(-c2c(F)cc(Cl)cc2-c2ccc3c(c2)CCC3(C)NC(=O)C2(NC(=O)C(F)(F)F)CC2)no1 (racemic) [Example 17, 1-(2,2,2-Trifluoro-acetylamino)-cyclopropanecarboxylic acid{(rac)-5-[5-chloro-3-fluoro-2-(5-methyl-[1,2,4]oxadiazol-3-yl)-phenyl]-1-methyl-indan-1-yl}-amide] |
| 6.7 | 0.5 | Cn1nnc(-c2c(F)cc(Cl)cc2-c2ccc3c(c2)CCC3(C)NC(=O)C2(NC(=O)C(F)(F)F)CC2)n1 (racemic) [Example 18, 1-(2,2,2-Trifluoro-acetylamino)-cyclopropanecarboxylic acid{(rac)-5-[5-chloro-3-fluoro-2-(2-methyl-2H-tetrazol-5-yl)-phenyl]-1-methyl-indan-1-yl}-amide] |
| 24 | 3.6 | Cn1nnc(-c2c(F)cc(Cl)cc2-c2ccc3c(c2)OCC3NC(=O)C2(NC(=O)C(F)(F)F)CC2)n1 (racemic) [Example 20, 1-(2,2,2-Trifluoro-acetylamino)-cyclopropanecarboxylic acid{(rac)-6-[5-chloro-3-fluoro-2-(2-methyl-2H-tetrazol-5-yl)-phenyl]-2,3-dihydro-benzofuran-3-yl}-amide] |
| 6.6 | 0.8 | Cn1nnc(-c2c(F)cc(Cl)cc2-c2ccc3c(c2)SCC3NC(=O)C2(NC(=O)C(F)(F)F)CC2)n1 (racemic) [Example 22, 1-(2,2,2-Trifluoro-acetylamino)-cyclopropanecarboxylic acid{(rac)-6-[5-chloro-3-fluoro-2-(2-methyl-2H-tetrazol-5-yl)-phenyl]-2,3-dihydro-benzo[b]thiophen-3-yl}-amide] |
